# Source: PubChem BioAssay (NCI)
#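 Five compound concentrations were applied to cells in 96-well plates for 48 hours; endpoints were derived by simple linear interpolation of the resulting dose-response curve. TGI denotes the concentration required for complete inhibition of growth.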
# How the values were obtained:
# Assay in all cases: NCI-60 cell line screen, 48 h
# 786-0 renal = test system: 786-0 renal
# A498 renal = test system: A498 renal
# A549 NSCLC = test system: A549 NSCLC
# ACHN renal = test system: ACHN renal
# BT-549 breast = test system: BT-549 breast
# CAKI-1 renal = test system: CAKI-1 renal
# CCRF-CEM leukemia = test system: CCRF-CEM leukemia
# COLO 205 colon = test system: COLO 205 colon
# DU-145 prostate = test system: DU-145 prostate
# EKVX NSCLC = test system: EKVX NSCLC
# HCC-2998 colon = test system: HCC-2998 colon
# HCT-116 colon = test system: HCT-116 colon
# HCT-15 colon = test system: HCT-15 colon
# HL-60(TB) leukemia = test system: HL-60(TB) leukemia
# HOP-62 NSCLC = test system: HOP-62 NSCLC
# HOP-92 NSCLC = test system: HOP-92 NSCLC
# HS 578T breast = test system: HS 578T breast
# HT29 colon = test system: HT29 colon
# IGROV1 ovarian = test system: IGROV1 ovarian
# K-562 leukemia = test system: K-562 leukemia
# KM12 colon = test system: KM12 colon
# LOX IMVI melanoma = test system: LOX IMVI melanoma
# M14 melanoma = test system: M14 melanoma
# MALME-3M melanoma = test system: MALME-3M melanoma
# MCF7 breast = test system: MCF7 breast
# MDA-MB-231 breast = test system: MDA-MB-231 breast
# MDA-MB-435 = test system: MDA-MB-435
# MDA-N = test system: MDA-N
# MOLT-4 leukemia = test system: MOLT-4 leukemia
# NCI-H226 lung = test system: NCI-H226 lung
# NCI-H23 lung = test system: NCI-H23 lung
# NCI-H460 lung = test system: NCI-H460 lung
# NCI-H522 lung = test system: NCI-H522 lung
# NCI/ADR-RES ovarian = test system: NCI/ADR-RES ovarian
# OVCAR-3 ovarian = test system: OVCAR-3 ovarian
# OVCAR-4 ovarian = test system: OVCAR-4 ovarian
# OVCAR-5 ovarian = test system: OVCAR-5 ovarian
# OVCAR-8 ovarian = test system: OVCAR-8 ovarian
# PC-3 prostate = test system: PC-3 prostate
# RPMI-8226 leukemia = test system: RPMI-8226 leukemia
# RXF 393 renal = test system: RXF 393 renal
# SF-268 CNS = test system: SF-268 CNS
# SF-295 CNS = test system: SF-295 CNS
# SF-539 CNS = test system: SF-539 CNS
# SK-MEL-2 melanoma = test system: SK-MEL-2 melanoma
# SK-MEL-28 melanoma = test system: SK-MEL-28 melanoma
# SK-MEL-5 melanoma = test system: SK-MEL-5 melanoma
# SK-OV-3 ovarian = test system: SK-OV-3 ovarian
# SN12C renal = test system: SN12C renal
# SNB-19 CNS = test system: SNB-19 CNS
# SNB-75 CNS = test system: SNB-75 CNS
# SR leukemia = test system: SR leukemia
# SW-620 colon = test system: SW-620 colon
# T-47D breast = test system: T-47D breast
# TK-10 renal = test system: TK-10 renal
# U251 CNS = test system: U251 CNS
# UACC-257 melanoma = test system: UACC-257 melanoma
# UACC-62 melanoma = test system: UACC-62 melanoma
# UO-31 renal = test system: UO-31 renal
compound,measurement,setting,value
COc1ccc(C2C3=C(COC3=O)OC(C)(C)Oc3cc4c(cc32)OCO4)cc1OC (stereo not drawn),TGI,786-0 renal,> 100 µM
same,TGI,A498 renal,63.8 µM
same,TGI,A549 NSCLC,> 100 µM
same,TGI,ACHN renal,> 100 µM
same,TGI,BT-549 breast,99.5 µM
same,TGI,CAKI-1 renal,> 100 µM
same,TGI,CCRF-CEM leukemia,> 100 µM
same,TGI,COLO 205 colon,48.1 µM
same,TGI,DU-145 prostate,> 100 µM
same,TGI,EKVX NSCLC,> 89.8 µM
same,TGI,HCC-2998 colon,> 100 µM
same,TGI,HCT-116 colon,> 92.3 µM
same,TGI,HCT-15 colon,> 100 µM
same,TGI,HL-60(TB) leukemia,> 87.9 µM
same,TGI,HOP-62 NSCLC,> 100 µM
same,TGI,HOP-92 NSCLC,> 73.8 µM
same,TGI,HS 578T breast,> 100 µM
same,TGI,HT29 colon,> 100 µM
same,TGI,IGROV1 ovarian,> 100 µM
same,TGI,K-562 leukemia,> 95.7 µM
same,TGI,KM12 colon,67.2 µM
same,TGI,LOX IMVI melanoma,> 100 µM
same,TGI,M14 melanoma,> 80.3 µM
same,TGI,MALME-3M melanoma,> 100 µM
same,TGI,MCF7 breast,> 90.9 µM
same,TGI,MDA-MB-231 breast,> 84.1 µM
same,TGI,MDA-MB-435,41.3 µM
same,TGI,MDA-N,39.2 µM
same,TGI,MOLT-4 leukemia,> 100 µM
same,TGI,NCI-H226 lung,> 100 µM
same,TGI,NCI-H23 lung,> 100 µM
same,TGI,NCI-H460 lung,> 100 µM
same,TGI,NCI-H522 lung,> 73.8 µM
same,TGI,NCI/ADR-RES ovarian,58.7 µM
same,TGI,OVCAR-3 ovarian,> 100 µM
same,TGI,OVCAR-4 ovarian,> 100 µM
same,TGI,OVCAR-5 ovarian,> 100 µM
same,TGI,OVCAR-8 ovarian,> 100 µM
same,TGI,PC-3 prostate,72.4 µM
same,TGI,RPMI-8226 leukemia,> 100 µM
same,TGI,RXF 393 renal,68.8 µM
same,TGI,SF-268 CNS,> 31.6 µM
same,TGI,SF-295 CNS,88.4 µM
same,TGI,SF-539 CNS,72.6 µM
same,TGI,SK-MEL-2 melanoma,> 100 µM
same,TGI,SK-MEL-28 melanoma,> 100 µM
same,TGI,SK-MEL-5 melanoma,> 74.3 µM
same,TGI,SK-OV-3 ovarian,> 100 µM
same,TGI,SN12C renal,> 100 µM
same,TGI,SNB-19 CNS,> 100 µM
same,TGI,SNB-75 CNS,24.8 µM
same,TGI,SR leukemia,> 100 µM
same,TGI,SW-620 colon,> 100 µM
same,TGI,T-47D breast,96.9 µM
same,TGI,TK-10 renal,> 100 µM
same,TGI,U251 CNS,> 100 µM
same,TGI,UACC-257 melanoma,> 100 µM
same,TGI,UACC-62 melanoma,> 75.4 µM
same,TGI,UO-31 renal,> 100 µM
CCNC(=S)NNC(=O)CSc1nc2ccc(I)cc2c(=O)n1Cc1ccccc1,TGI,786-0 renal,> 100 µM
same,TGI,A498 renal,> 78.2 µM
same,TGI,A549 NSCLC,> 100 µM
same,TGI,ACHN renal,> 24.4 µM
same,TGI,BT-549 breast,> 100 µM
same,TGI,CAKI-1 renal,1.65 µM
same,TGI,CCRF-CEM leukemia,> 100 µM
same,TGI,COLO 205 colon,> 100 µM
same,TGI,DU-145 prostate,> 100 µM
same,TGI,EKVX NSCLC,> 88 µM
same,TGI,HCC-2998 colon,> 85.7 µM
same,TGI,HCT-116 colon,> 77.1 µM
same,TGI,HCT-15 colon,> 100 µM
same,TGI,HL-60(TB) leukemia,> 34.7 µM
same,TGI,HOP-62 NSCLC,> 100 µM
same,TGI,HOP-92 NSCLC,97.7 µM
same,TGI,HS 578T breast,> 100 µM
same,TGI,HT29 colon,> 100 µM
same,TGI,IGROV1 ovarian,> 100 µM
same,TGI,K-562 leukemia,> 100 µM
same,TGI,KM12 colon,> 100 µM
same,TGI,LOX IMVI melanoma,> 100 µM
same,TGI,M14 melanoma,> 100 µM
same,TGI,MALME-3M melanoma,> 67.8 µM
same,TGI,MCF7 breast,> 100 µM
same,TGI,MDA-MB-231 breast,> 100 µM
same,TGI,MDA-MB-435,> 100 µM
same,TGI,MDA-N,> 100 µM
same,TGI,MOLT-4 leukemia,> 100 µM
same,TGI,NCI-H226 lung,> 95.5 µM
same,TGI,NCI-H23 lung,> 100 µM
same,TGI,NCI-H460 lung,> 100 µM
same,TGI,NCI-H522 lung,> 100 µM
same,TGI,NCI/ADR-RES ovarian,> 100 µM
same,TGI,OVCAR-3 ovarian,> 100 µM
same,TGI,OVCAR-4 ovarian,> 95.5 µM
same,TGI,OVCAR-5 ovarian,> 100 µM
same,TGI,OVCAR-8 ovarian,> 70.4 µM
same,TGI,PC-3 prostate,> 100 µM
same,TGI,RPMI-8226 leukemia,> 100 µM
same,TGI,RXF 393 renal,> 81 µM
same,TGI,SF-268 CNS,> 100 µM
same,TGI,SF-295 CNS,> 100 µM
same,TGI,SF-539 CNS,> 100 µM
same,TGI,SK-MEL-2 melanoma,> 94.9 µM
same,TGI,SK-MEL-28 melanoma,> 100 µM
same,TGI,SK-MEL-5 melanoma,> 100 µM
same,TGI,SK-OV-3 ovarian,> 100 µM
same,TGI,SN12C renal,> 100 µM
same,TGI,SNB-19 CNS,> 100 µM
same,TGI,SNB-75 CNS,> 100 µM
same,TGI,SR leukemia,> 100 µM
same,TGI,SW-620 colon,> 100 µM
same,TGI,T-47D breast,> 100 µM
same,TGI,TK-10 renal,> 100 µM
same,TGI,U251 CNS,> 100 µM
same,TGI,UACC-257 melanoma,> 87.1 µM
same,TGI,UACC-62 melanoma,> 100 µM
same,TGI,UO-31 renal,0.136 µM
